Entries after “also recorded” stand apart in the source; their conditions may differ.
Experiments:
5-HT1A receptor = target: T1, 5-HT1A receptor (Rattus norvegicus, UniProt P19327); test: Affinity for 5-HT1A receptors, shift of (3H)8-OH-DPAT in rat cerebral cortex; type: binding; settings: mean of at least 3 experiments, read-out: 5-HT1A affinity (pKi) (converted)
T1 construct: the cerebral cortex is sampled and homogenized in 20 volumes of buffer; from tissue; host or cells: rat cerebral cortex homogenate (membranes)
T1 sequence (P19327 1-422): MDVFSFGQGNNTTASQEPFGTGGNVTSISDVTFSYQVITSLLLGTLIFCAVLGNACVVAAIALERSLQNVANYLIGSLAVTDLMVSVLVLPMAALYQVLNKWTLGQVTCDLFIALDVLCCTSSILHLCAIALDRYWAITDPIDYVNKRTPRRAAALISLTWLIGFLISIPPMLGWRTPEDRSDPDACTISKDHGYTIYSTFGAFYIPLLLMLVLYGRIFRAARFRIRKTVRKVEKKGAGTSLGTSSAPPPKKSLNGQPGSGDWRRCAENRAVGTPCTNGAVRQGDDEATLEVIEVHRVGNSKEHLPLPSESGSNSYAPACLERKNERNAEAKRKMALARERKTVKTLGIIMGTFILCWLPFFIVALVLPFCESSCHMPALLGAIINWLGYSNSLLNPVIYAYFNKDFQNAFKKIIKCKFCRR
Experimental: (§1) The affinity of the compounds of the invention for the rat 5-HT1A receptor was measured conventionally from competitive experiments with a radiolabelled 5-HT1A agonist. […] This test is widely used since it is predictive of antidepressant action in man. Analgesic activity was determined after intra-peritoneal administration to rats, both with a physiological pain model and a pathological pain model. By physiological pain, the inventors designate pain whose origin is a lesion and/or organic ill-function such as pain caused by excessive nociceptive stimuli.
The in vitro affinity of the compounds of the invention for the 5-HT1A receptors was determined by measuring the shift of (^3H)8-OH-DPAT (agonist of 5HT1A receptors labelled with tritium, TRK 850; 160-240 Ci/mmole).
The study on binding with the 5-HT1A receptor was conducted as described in Naunyn-Schmiedeberg's Arch. Pharmaco. 1991, 343, 106. For these experiments, rat cerebral cortices were used. After unfreezing the brain in Tris-HCl buffer 50 mmol, pH=7.40 at 25° C., the cerebral cortex is sampled and homogenized in 20 volumes of buffer held at 4° C. The homogenate is centrifuged at 39000 g for 10 min, the centrifuge residue is suspended in the same volume of buffer and again centrifuged. After further suspension under the same conditions, the homogenate is incubated for 10 min at 37° C. then again centrifuged. The final residue is suspended in cold reaction buffer Tris-HCl 50 mmol, pH=7.40 at 25° C. containing […] of pargyline, 4 mmol of CaCl2 and 0.10% ascorbic acid. The final concentration of the tissue in the incubation medium is 10 mg/tube.
The reaction tubes contain 0.10 mL of (^3H)8-OH-DPAT (final […]), 0.10 mL of product to be tested 6-7 concentrations and 0.80 mL of tissue. Non-specific binding is defined using […] of 5-HT. The reaction tubes are incubated at 23° C. for 30 min then their content is rapidly vacuum filtered through Whatman GF/B filters, the tubes are rinsed with 2×5 mL of Tris-HCl buffer 50 mmol, pH=7.4 at 25° C. Radioactivity is collected on the filter and analyzed by liquid scintillation by adding 4 mL of scintillating liquid (Emulsifier Safe, Packard). All experiments were performed in triplicate.
The inhibition constants (Ki) of the products of the invention are estimated from shift experiments using the non-linear regression programme RADLIG version 4 by EBDA (Equilibrium Binding Data Analysis Biosoft, Cambridge, UK, Mc Pherson, 1985). The dissociation constant of the radioactive ligand used for calculations is […] for (^3H)8-OH-DPAT. The values of pKi (−log Ki) are given in the form mean±SEM of at least 3 experiments.

[1] = system: rats, formol-induced pain; test: Formol test (analgesic activity, physiological pain); type: in vivo; settings: rat, i.p.
Text: (§2) The physiological pain model chosen by the inventors to determine the analgesic activity of the compounds of the invention uses excess nociceptive stimuli (injection of formol) to cause a painful sensation in animal (Eur. J. Pharmacol. 2001, 421, 109). For the so-called pathological pain model in animal, the inventors chose to use pain induced by the injection of a cytotoxic agent such as oxaliplatine (Eur. J. Cancer 2007, 2658).
The rats (Male Sprague Dawley rats (ICO: OFA SD [IOPS], Iffa Credo, France) are placed in plexiglass observation boxes above an angled mirror so as to facilitate observation of the hind paws. After thirty minutes of habituation, the animals are given an injection of formol diluted to 2.5% on the plantar surface of the right hind paw. The injection of formol produces behavioural responses which occur in two phases:
an acute phase, from 0 to 5 min after injection of the formol, corresponding to stimulation of receptors specialized in the transmission of pain messages to the spinal cord.
a late phase which occurs 20 to 30 min after the injection. This phase corresponds to stimulation of receptors by inflammatory mediators and/or to hyper-excitability of the dorsal horn induced during the first phase. This late phase therefore involves central sensitization.
For the study of the compounds of the invention we selected two expressions of painful behaviour and chose two periods of observation which correspond to the two pain phases (i.e. 0-5 min and 22.5-27.5 min). During these two 5-min periods the animals are observed every 30 seconds and are given scores for the following behaviours: paw licking or not of the injected paw, and lifting or non-lifting of the injected paw. Ten observations give a maximum score of 10 for each parameter for each of the 2 phases. The products of the invention are administered via intraperitoneal route 15 min before the injection of formol.
(§3) Quantification of the effect of the compounds of the invention on the forced swimming tests and on the formol test is conducted by one-factor variance analysis between groups (ANOVA analysis) followed by a multiple comparison test (Dunnett's test) versus control animals. The ED50 value is calculated using Litchfield and Wilcoxon analysis from the percentage of responding animals.
For this test, the animals are observed every 30 seconds during two periods of 5 min. The following behaviours are noted: paw licking or not of the injected paw, and paw lifting or not of the injected paw. Ten observations give a maximum score of 10 for each parameter for each of the 2 phases, measuring either paw lifting or paw licking. This test was also performed by comparison with administration of the vehicle (veh) alone.

[2] = system: rats, oxaliplatine-induced allodynia; test: Oxaliplatine test, von Frey (analgesic activity, pathological pain); type: in vivo; settings: rat, i.p.
Text: as §2
The rats (Male Sprague Dawley rats (ICO: OFA SD [IOPS], Iffa Credo, France) are tested a first time on the Friday to determine their mechanical sensitivity threshold (von Frey test). They are then given an intra-peritoneal injection (i.p.) of oxaliplatine (anticancer treatment causing neuropathic pain in patients) at a dose of 8 mg/kg. This dose in rat induces neuropathy which translates as mechanical hypersensitivity (allodynia) which develops 3 days after the injection with a peak on day five. For the study of the compounds of the invention, the animals are re-tested on day five, 15 min after administration of the compound via intra-peritoneal route.
The pressure force is then measured (in g) at which withdrawal of the paw of the animals is observed.

[3] = system: rats, forced swimming immobility; test: Forced swimming test (antidepressant activity); type: in vivo; settings: rat, oral
Experimental: as §1
The rats (Male Sprague Dawley rats (ICO: OFA SD [IOPS], Iffa Credo, France), are placed in a cylinder (45 cm high and 20 cm in diameter) filled with water at 25° C.±0.5 up to a height of 17 cm. This depth allows rats to swim or float without their tail touching the bottom of the cylinder.
24 h before the test day, the rats are placed in the cylinder for 15 min, a lapse of time after which they no longer attempt to escape and remain immobile. On the test day the animals are replaced in the cylinder and the duration of animal immobility is measured by direct observation followed by verification of an audiovisual recording for 5 min. The products of the invention are administered by oral route 60 min before the test. A rat is considered to be immobile if it allows itself to float and only makes small movements to remain on the surface. Two rats are observed at the same time.
as §3

O=C(c1ccc(F)c(Cl)c1)N1CCC(F)(CNCC2CNc3ccccc3O2)CC1 (single isomer, unassigned; (-)) [Compound 1a1, (−)-(3-Chloro-4-fluoro-phenyl)-{4-fluoro-4-[(3,4-dihydro-2H-1,4-benzoxazine-2-methanamino)-methyl]-pipéridin-1-yl}-methanone]
Ki (5-HT1A receptor): 1.02 nM | ED50 ([1]; ip, 15 min before formol, read-out: ED50, inhibition of paw lifting): 0.05 mg/kg | effect on paw lifting and paw licking, in words ([1]; acute and late phases): dose-dependent inhibition of the 2 measured parameters; also recorded: Full analgesia is obtained irrespective of the pain phase | dose on and after which full analgesia is obtained ([2]; day five after oxaliplatine, von Frey): ≥ 0.04 mg/kg | effect on allodynia, in words ([2]; dose range): dose-dependent inhibition of allodynia | dose on and after which none of the animals remains immobile [3]: ≥ 10 mg/kg | ED50 ([3]; 60 min before test, read-out: ED50, reduction of immobility time): 0.08 mg/kg | effect on animal immobility time ([3]; dose range): reducing the animal's immobility time in dose-dependent fashion

— patent US8669250B2, “Derivatives of aryl-{4-halogeno-4-[aminomethyl]-piperidin-1-yl}-methanone, their method of preparation and their use as medicinal products” (Pierre Fabre Medicament, priority 2009, dated 2014)
